Structures can show the parent of a compound that is named as a salt.
These compounds were tested on PAKT/PKB (p-(S473) AKT) in H209 small cell lung carcinoma cells stimulated with Stem Cell Factor (assay: PAKT/PKB Cytoblot Assay with H209 cells (SCF-stimulated p-(S473) AKT)). Conditions: Homo sapiens, NCI-H209, compound 1 hour, SCF 25 ng/mL 5 minutes, group: between 500 nM and 1 μM (units in value).
Assay type: cell-based
In short: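 H209 SCLC cells kept overnight in RPMI with 0.1% BSA were pretreated 1 h at 37 °C with compound (0.01–10 μM final), then stimulated with SCF 25 ng/mL for 5 min. After formaldehyde/methanol fixation, p-(S473) AKT was detected in-cell with HRP secondary and ECL chemiluminescence, and IC50 was derived.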

IC50 [nM] | Structure (SMILES)
500 to 1000 | CC1(C)OCC(CNC(=O)c2cc(CNc3ccccc3C(=O)Nc3ccc4c(c3)OC(F)(F)O4)ccn2)O1 (stereo not drawn) [Example 78, 4-{[(2-{[(2,2-Difluoro-1,3-benzodioxol-5-yl)amino]carbonyl}phenyl)amino]methyl}-N-[(2,2-dimethyl-1,3-dioxolan-4-yl)methyl]pyridine-2-carboxamide]
500 to 1000 | N#Cc1cc(CNc2cc(F)c(F)cc2C(=O)Nc2ccc3c(c2)OC(F)(F)C(F)(F)O3)ccn1 [Example 38, 2-{[(2-cyanopyridin-4-yl)methyl]amino}-4,5-difluoro-N-(2,2,3,3-tetrafluoro-2,3-dihydro-1,4-benzodioxin-6-yl)benzamide]
500 to 1000 | CN(C)CCCCNC(=O)c1cc(CNc2ccccc2C(=O)Nc2ccc3c(c2)OC(F)(F)O3)ccn1 [Example 90, 4-{[(2-{[(2,2-difluoro-1,3-benzodioxol-5-yl)amino]carbonyl}phenyl)amino]methyl}-N-[4-(dimethylamino)butyl]pyridine-2-carboxamide]

Same assay, conditions: Homo sapiens, NCI-H209, compound 1 hour, SCF 25 ng/mL 5 minutes, group: between 1 and 3 μM

Structure (SMILES) | IC50 [nM]
N#Cc1cc(CNc2ccc(F)cc2C(=O)Nc2ccc3c(c2)OC(F)(F)C(F)(F)O3)ccn1 [Example 27, 2-{[(2-cyanopyridin-4-yl)methyl]amino}-5-fluoro-N-(2,2,3,3-tetrafluoro-2,3-dihydro-1,4-benzodioxin-6-yl)benzamide] | 1000 to 3000
O=C(NCCCO)c1cc(CNc2ccccc2C(=O)Nc2ccc3c(c2)OC(F)(F)O3)ccn1 [Example 93, 4-{[(2-{[(2,2-difluoro-1,3-benzodioxol-5-yl)amino]carbonyl}phenyl)amino]methyl}-N-(3-hydroxypropyl)pyridine-2-carboxamide] | 1000 to 3000

Second part, the compound after the results:

IC50 [nM] | Structure (SMILES)
1000 to 3000 | Cc1cccc(CNC(=O)Nc2cc(CNc3ccccc3C(=O)Nc3ccc4c(c3)OC(F)(F)O4)ccn2)c1 [Example 171, N-(2,2-difluoro-1,3-benzodioxol-5-yl)-2-({[2-({[(3-methylbenzyl)amino]carbonyl}amino)pyridin-4-yl]methyl}amino)benzamide]
1000 to 3000 | N#Cc1cccc(NC(=O)Nc2cc(CNc3ccccc3C(=O)Nc3ccc4c(c3)OC(F)(F)O4)ccn2)c1 [Example 166, 2-({[2-({[(3-cyanophenyl)amino]carbonyl}amino)pyridin-4-yl]methyl}amino)-N-(2,2-difluoro-1,3-benzodioxol-5-yl)benzamide]
1000 to 3000 | COc1ccc(CCNC(=O)c2cc(CNc3ccccc3C(=O)Nc3ccc4c(c3)OC(F)(F)O4)ccn2)cc1 [Example 122, 4-{[(2-{[(2,2-difluoro-1,3-benzodioxol-5-yl)amino]carbonyl}phenyl)amino]methyl}-N-[2-(4-methoxyphenyl)ethyl]pyridine-2-carboxamide]
1000 to 3000 | CC(C)C[C@H](CO)NC(=O)c1cc(CNc2ccccc2C(=O)Nc2ccc3c(c2)OC(F)(F)O3)ccn1 [Example 109, 4-{[(2-{[(2,2-difluoro-1,3-benzodioxol-5-yl)amino]carbonyl}phenyl)amino]methyl}-N-[1-(hydroxymethyl)-3-methylbutyl]pyridine-2-carboxamide]

Same assay, conditions: Homo sapiens, NCI-H209, compound 1 hour, SCF 25 ng/mL 5 minutes, group: less than 500 nM

Structure (SMILES) | IC50 [nM]
NC(=O)CCNC(=O)c1cc(CNc2ccccc2C(=O)Nc2ccc3c(c2)OC(F)(F)O3)ccn1 [Example 95, N-(3-amino-3-oxopropyl)-4-{[(2{[(2,2-difluoro-1,3-benzodioxol-5-yl)amino]carbonyl}phenyl)amino]methyl}pyridine-2-carboxamide] | < 500
CNc1nccc(CNc2ccccc2C(=O)Nc2ccc3c(c2)OC(F)(F)C(F)(F)O3)n1 [Example 51, 2-({[2-(methylamino)pyrimidin-4-yl]methyl}amino)-N-(2,2,3,3-tetrafluoro-2,3-dihydro-1,4-benzodioxin-6-yl)benzamide] | < 500
O=C(Nc1ccc2c(c1)OC(F)(F)O2)c1cccnc1NCc1ccncc1 [Example 15, N-(2,2-difluoro-1,3-benzodioxol-5-yl)-2-[(pyridin-4-ylmethyl)amino]nicotinamide] | < 500
CNC(=O)c1cc(CNc2cc(F)ccc2C(=O)Nc2ccc3c(c2)OC(F)(F)O3)ccn1 [Example 33, 4-{[(2-{[(2,2-difluoro-1,3-benzodioxol-5-yl)amino]carbonyl}-5-fluorophenyl)amino]methyl}-N-methylpyridine-2-carboxamide] | < 500
CCNC(=O)c1cc(CNc2ccccc2C(=O)Nc2ccc3c(c2)OC(F)(F)O3)ccn1 [Example 45, 4-{[(2-{[(2,2-difluoro-1,3-benzodioxol-5-yl)amino]carbonyl}phenyl)amino]methyl}-N-ethylpyridine-2-carboxamide] | < 500
O=C(Nc1ccc2c(c1)OC(F)(F)O2)c1ccc(F)cc1NCc1ccncc1 [Example 21, N-(2,2-difluoro-1,3-benzodioxol-5-yl)-4-fluoro-2-[(pyridin-4-ylmethyl)amino]benzamide] | < 500
N#Cc1cc(CNc2ccc(F)cc2C(=O)Nc2ccc3c(c2)OC(F)(F)O3)ccn1 [Example 30, 2-{[(2-cyanopyridin-4-yl)methyl]amino}-N-(2,2-difluoro-1,3-benzodioxol-5-yl)-5-fluorobenzamide] | < 500
CCNC(=O)c1cc(CNc2cc(F)ccc2C(=O)Nc2ccc3c(c2)OC(F)(F)O3)ccn1 [Example 47, 4-{[(2-{[(2,2-difluoro-1,3-benzodioxol-5-yl)amino]carbonyl}-5-fluorophenyl)amino]methyl}-N-ethylpyridine-2-carboxamide] | < 500
O=C(Nc1ccc2c(c1)OC(F)(F)C(F)(F)O2)c1ccc(F)cc1NCc1ccncc1 [Example 18, 4-fluoro-2-[(pyridin-4-ylmethyl)amino]-N-(2,2,3,3-tetrafluoro-2,3-dihydro-1,4-benzodioxin-6-yl)benzamide] | < 500
CN(C)CCNC(=O)c1cc(CNc2ccccc2C(=O)Nc2ccc3c(c2)OC(F)(F)O3)ccn1 [Example 85, 4-{[(2-{[(2,2-difluoro-1,3-benzodioxol-5-yl)amino]carbonyl}phenyl)amino]methyl}-N-[2-(dimethylamino)ethyl]pyridine-2-carboxamide] | < 500

Continued, values first:

IC50 [nM] | Structure (SMILES)
< 500 | O=C(NCCOCCO)c1cc(CNc2ccccc2C(=O)Nc2ccc3c(c2)OC(F)(F)O3)ccn1 [Example 103, 4-{[(2-{[(2,2-difluoro-1,3-benzodioxol-5-yl)amino]carbonyl}phenyl)amino]methyl}-N-[2-(2-hydroxyethoxy)ethyl]pyridine-2carboxamide]
< 500 | CCOC(=O)CCC(=O)N(C(=O)CCC(=O)OCC)c1cc(CNc2ccccc2C(=O)Nc2ccc3c(c2)OC(F)(F)O3)ccn1 [Example 158, diethyl 4,4′-[(4-{[(2-{[(2,2-difluoro-1,3-benzodioxol-5-yl)amino]carbonyl}phenyl)amino]methyl}pyridin-2-yl)imino]bis(4-oxobutanoate)]
< 500 | O=C(NCCCN1CCCCCC1)c1cc(CNc2ccccc2C(=O)Nc2ccc3c(c2)OC(F)(F)O3)ccn1 [Example 113, N-(3-azepan-1-ylpropyl)-4-{[(2-{[(2,2-difluoro-1,3-benzodioxol-5-yl)amino]carbonyl}phenyl)amino]methyl}pyridine-2-carboxamide]
< 500 | O=C(NCCc1ccccn1)c1cc(CNc2ccccc2C(=O)Nc2ccc3c(c2)OC(F)(F)O3)ccn1 [Example 120, 4-{[(2-{[(2,2-difluoro-1,3-benzodioxol-5-yl)amino]carbonyl}phenyl)amino]methyl}-N-(2-pyridin-2-ylethyl)pyridine-2-carboxamide]
< 500 | CN(C)CCCCCNC(=O)c1cc(CNc2ccccc2C(=O)Nc2ccc3c(c2)OC(F)(F)O3)ccn1 [Example 100, 4-{[(2-{[(2,2-difluoro-1,3-benzodioxol-5-yl)amino]carbonyl}phenyl)amino]methyl)-N-[5-(dimethylamino)pentyl]pyridine2-carboxamide]
< 500 | CN(C)C(=O)Nc1cc(CNc2ccccc2C(=O)Nc2ccc3c(c2)OC(F)(F)O3)ccn1 [Example 174, N-(2,2-difluoro-1,3-benzodioxol-5-yl)-2-{[(2-{[(dimethylamino)carbonyl]amino}pyridin-4-yl)methyl]amino}benzamide]
< 500 | O=C(NCCCCN1CCCC1)c1cc(CNc2ccccc2C(=O)Nc2ccc3c(c2)OC(F)(F)O3)ccn1 [Example 97, 4-{[(2-{[(2,2-difluoro-1,3-benzodioxol-5-yl)amino]carbonyl}phenyl)amino]methyl}-N-(4-pyrrolidin-1-ylbutyl)pyridine-2-carboxamide]
< 500 | COC(C)(C)C(=O)Nc1cc(CNc2ccccc2C(=O)Nc2ccc3c(c2)OC(F)(F)O3)ccn1 [Example 159, N-(2,2-difluoro-1,3-benzodioxol-5-yl)-2-[({2-[(2-methoxy-2-methylpropanoyl)amino]pyridin-4-yl}methyl)amino]benzamide]
< 500 | COC(C)C(=O)Nc1cc(CNc2ccccc2C(=O)Nc2ccc3c(c2)OC(F)(F)O3)ccn1 (stereo not drawn) [Example 151, N-(2,2-difluoro-1,3-benzodioxol-5-yl)-2-[({2-[(2-methoxypropanoyl)amino]pyridin-4yl}methyl)amino]benzamide]
< 500 | CC(C)OCCCNc1cc(CNc2ccccc2C(=O)Nc2ccc3c(c2)OC(F)(F)O3)ccn1 [Example 140, N-(2,2-difluoro-1,3-benzodioxol-5-yl)-2-[({2-[(3-isopropoxypropyl)amino]pyridin-4-yl}methyl)amino]benzamide trifluoroacetate]
< 500 | CN(C)CCCNc1cc(CNc2ccccc2C(=O)Nc2ccc3c(c2)OC(F)(F)O3)ccn1 [Example 143, N-(2,2-difluoro-1,3-benzodioxol-5-yl)-2-{[(2-{[3-(dimethylamino)propyl]amino}pyridin-4-yl)methyl]amino}benzamidebis(trifluoroacetate)]

From patent US20080293696A1, “2-Aminoarylcarboxamides Useful as Cancer Chemotherapeutic Agents” (Bayer Pharmaceuticals Corporation, priority 2004, published 2008)
